Legend:
[1] = target: human A2a adenosine receptor (Homo sapiens (Human), UniProt P29274); assay: A2a receptor affinity radioligand binding assay ([3H] SCH58261); conditions: membranes from HEK293 or CHO cells expressing human A2a receptor
How it was run: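 Membranes from HEK293 or CHO cells expressing human A2a were preincubated 15–30 min at room temperature with compound, then incubated 60 min at room temperature with [3H]SCH58261 (diluted to 4 nM) in 50 mM Tris pH 7.4, 10 mM MgCl2, 0.005% Tween20. Bound radioactivity was collected by filtration; nonspecific binding defined with 1 μM ZM241385; IC50 from 4-parameter logistic fit.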

[2] = target: human A2b adenosine receptor (Homo sapiens (Human), UniProt P29275); assay: A2b radioligand filtration binding assay; conditions: membranes from HEK293 cells expressing human A2b receptor
Chain of human A2b adenosine receptor (P29275 whole entry): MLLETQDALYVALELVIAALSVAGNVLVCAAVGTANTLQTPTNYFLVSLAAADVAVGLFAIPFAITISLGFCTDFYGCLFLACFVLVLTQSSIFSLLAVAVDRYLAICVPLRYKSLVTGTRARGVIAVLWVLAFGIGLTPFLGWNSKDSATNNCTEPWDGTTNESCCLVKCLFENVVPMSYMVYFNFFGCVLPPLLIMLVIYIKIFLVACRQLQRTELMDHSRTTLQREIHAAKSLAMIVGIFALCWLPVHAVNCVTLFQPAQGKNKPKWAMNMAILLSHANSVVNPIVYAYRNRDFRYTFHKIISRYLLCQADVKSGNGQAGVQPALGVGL
How it was run: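 Membranes from HEK293 cells expressing human A2b receptor preincubated with compound 15 to 30 min at room temperature, then tritiated proprietary A2b antagonist (diluted to 14 nM before addition) added in PBS pH 7.4 for 60 min at room temperature. Bound radioactivity by filtration and scintillation; non-specific binding with 20 μM NECA; IC50 by 4-parameter logistic fit.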

Chain of human A2a adenosine receptor (P29274 whole entry): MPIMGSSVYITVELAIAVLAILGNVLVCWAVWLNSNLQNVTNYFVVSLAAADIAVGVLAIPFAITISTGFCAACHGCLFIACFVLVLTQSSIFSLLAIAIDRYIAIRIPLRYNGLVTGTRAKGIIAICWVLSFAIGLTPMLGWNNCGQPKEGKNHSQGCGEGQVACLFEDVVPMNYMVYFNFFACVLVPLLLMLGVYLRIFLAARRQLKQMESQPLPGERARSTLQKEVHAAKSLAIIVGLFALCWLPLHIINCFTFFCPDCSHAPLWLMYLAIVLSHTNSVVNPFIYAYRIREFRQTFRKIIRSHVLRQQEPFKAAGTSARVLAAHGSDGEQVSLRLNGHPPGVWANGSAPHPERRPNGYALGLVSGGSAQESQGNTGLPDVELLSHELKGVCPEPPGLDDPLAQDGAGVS

## COc1cc2nc(N)n3nc([C@@H]4CCCN(c5cnn(C6CCOCC6)c5C)C4)nc3c2cc1F [Example 16, (R)-9-fluoro-8-methoxy-2-(1-(5-methyl-1-(tetrahydro-2H-pyran-4-yl)-1H-pyrazol-4-yl)piperidin-3-yl)-[1,2,4]triazolo[1,5-c]quinazoliu-5-amine]
[1]
  IC50: 0.8 nM
[2]
  IC50: 426 nM

## COc1cc2nc(N)n3nc([C@@H]4CCCN(c5cn(C6CCOCC6)nc5C)C4)nc3c2cc1F [Example 17, (R)-9-fluoro-8-methoxy-2-(1-(3-methyl-1-(tetrahydro-2H-pyran-4-yl)-1H-pyrazol-4-yl)piperidin-3-yl) [1,2,4]triazolo[1,5-c]quinazolin-5-amine]
[1]
  IC50: 1.7 nM
[2]
  IC50: 434 nM

## COc1cc2nc(N)n3nc([C@@H]4CCCN(c5cnn(C6CCOCC6)c5C(F)F)C4)nc3c2cc1F [Example 18, (R)-2-(1-(5-(difluoromethyl)-1-(tettahydro-2H-pyran-4-yl)-1H-pyrazol-4-yl)piperidin-3-yl)-9-fluoro-8-methoxy-[1,2,4]triazolo[1,5-c]quinazolin-5-amine]
[1]
  IC50: 0.7 nM
[2]
  IC50: 13.5 nM

## COc1cc2nc(N)n3nc([C@@H]4CCCN(c5cn(C6CCOCC6)nc5C(F)F)C4)nc3c2cc1F [Example 19, (R)-2-(1-(3-(difluoromethyl)-1-(tetrahydro-2H-pyran-4-yl)-1H-pyrazol-4-yl)piperidin-3-yl)-9-fluoro-8-methoxy-[1,2,4]triazolo[1,5-c]quinazolin-5-amine]
[1]
  IC50: 0.7 nM
[2]
  IC50: 87.3 nM

## CCn1cc(N2CCC[C@@H](c3nc4c5cc(F)c(OC)cc5nc(N)n4n3)C2)c(CO)n1 [Example 20, (R)-(4-(3-(5-amino-9-fluoro-8-methoxy-[1,2,4]triazolo[1,5-c]quinazolin-2-yl)piperidin-1-yl)-ethyl-1H-pyrazol-3-yl)methanol]
[1]
  IC50: 5.8 nM
[2]
  IC50: 163 nM

## COc1cc2nc(N)n3nc([C@@H]4CCCN(c5cn(CC(C)(C)O)nc5C5CC5)C4)nc3c2cc1F [Example 21, (R)-1-(4-(3-(5-amino-9-fluoro-8-methoxy-[1,2,4]triazolo[1,5-c]quinazolin-2-yl)piperidin-1-yl)-3-cyclopropyl-1H-pyrazol-1-yl)-2-methylpropan-2-ol]
[1]
  IC50: 0.3 nM
[2]
  IC50: 515 nM

## COc1cc2nc(N)n3nc([C@@H]4CCCN(c5ccc(OC(F)F)nc5)C4)nc3c2cc1F [Example 22, (R)-2-(1-(6-(difluoromethoxy)pyridin-3-yl)piperidin-3-yl)-9-fluoro-8-methoxy[1,2,4]triazolo[1,5-c]quinazolin-5-amine]
[1]
  IC50: 8.6 nM
[2]
  IC50: 27.6 nM

## COc1cc2nc(N)n3nc([C@@H]4CCCN(c5ccc(OC(C)C)nc5)C4)nc3c2cc1F [Example 23, (R)-9-fluoro-2-(1-(6-isopropoxypyridin-3-yl)piperidin-3-yl)-8-methoxy-[1,2,4]triazolo[1,5-c]quinazolin-5-amine]
[1]
  IC50: 2 nM
[2]
  IC50: 15.9 nM

## COc1cc2nc(N)n3nc([C@@H]4CCCN(c5cnc(OC(F)F)c(C)c5)C4)nc3c2cc1F [Example 24, (R)-2-(1-(6-(difluoromethoxy)-5-methylpyridin-3-yl)piperidin-3-yl)-9-fluoro-8-methoxy-[1,2,4]triazolo[1,5-c]quinazolin-5-amine]
[1]
  IC50: 13.8 nM
[2]
  IC50: 480 nM

## COc1cc2nc(N)n3nc([C@@H]4CCCN(c5cc(C)c(=O)n(C(F)F)c5)C4)nc3c2cc1F [Example 25, (R)-5-(3-(5-amino-9-fluoro-8-methoxy-[1,2,4]triazolo[1,5-c]quinazolin-2-yl)piperidin-1-yl)-1-(difluoromethyl)-3-methylpyridin-2(1H)-one]
[1]
  IC50: 0.6 nM
[2]
  IC50: 61.7 nM

## COc1ccc(N2CCC[C@@H](c3nc4c5cc(F)c(OC)cc5nc(N)n4n3)C2)cn1 [Example 26, (R)-9-fluoro-8-methoxy-2-(1-(6-methoxypyridin-3-yl)piperidin-3-yl)-[1,2,4]triazolo[1,5-c]quinazolin-5-amine]
[1]
  IC50: 3.9 nM
[2]
  IC50: 48.7 nM

## COc1cc2nc(N)n3nc([C@@H]4CCCN(c5nc(C)n(CC(C)(C)O)n5)C4)nc3c2cc1F [Example 27, (R)-1-(3-(3-(5-amino-9-fluoro-8-methoxy-[1,2,4]triazolo[1,5-c]quinazolin-2-yl)piperidin-1-yl)-5-methyl-1H-1,2,4-triazol-1-yl)-2-methylpropan-2-ol]
[1]
  IC50: 1.8 nM
[2]
  IC50: 861 nM

## COc1cc(F)cc2c1nc(N)n1nc([C@@H]3CCCN(c4cnn(CC(C)(C)O)c4)C3)nc21 [Example 28, (R)-1-(4-(3-(5-amino-9-fluoro-7-methoxy-[1,2,4]triazolo [1,5-c]quinazolin-2-yl)piperidin-1-yl)-1H-pyrazol-1-yl)-2-methylpropan-2-ol]
[1]
  IC50: 2.8 nM
[2]
  IC50: 76.3 nM

## COc1cc(F)cc2c1nc(N)n1nc([C@@H]3CCCN(c4cnn(CC(C)(C)O)c4C)C3)nc21 [Example 29, (R)-1-(4-(3-(5-amino-9-fluoro-7-methoxy-[1,2,4]triazolo [1,5-c]quinazolin-2-yl)piperidin-1-yl)-5-methyl-1H-pyrazol-1-yl)-2-methylpropan-2-ol]
[1]
  IC50: 1.5 nM
[2]
  IC50: 301 nM

## COc1cc(F)cc2c1nc(N)n1nc([C@@H]3CCCN(c4cn(CC(C)(C)O)nc4C)C3)nc21 [Example 30, (R)-1-(4-(3-(5-amino-9-fluoro-7-methoxy-[1,2,4]triazolo [1,5-c]quinazolin-2-yl)piperidin-l-yl)-3-methyl-1H-pyrazol-1-yl)-2-methylpropan-2-ol]
[1]
  IC50: 0.4 nM
[2]
  IC50: 97.9 nM

## COc1cc(F)cc2c1nc(N)n1nc([C@@H]3CCCN(c4cnn(CC5(O)CCC5)c4)C3)nc21 [Example 31, (R)-1-((4-(3-(5-amino-9-fluoro-7-methoxy-[1,2,4]triazolo [1,5-c]quinazolin-2-yl)piperidin-l-yl)-1H-pyrazol-1-yl)methyl)cyclobutan-1-ol]
[1]
  IC50: 1.7 nM
[2]
  IC50: 94.8 nM

## COc1cc(F)cc2c1nc(N)n1nc([C@@H]3CCCN(c4cnn(C(C)(C)CO)c4)C3)nc21 [Example 32, (R)-2-(4-(3-(5-amino-9-fluoro-7-methoxy-[1,2,4]triazolo[1,5-c]quinazolin-2-yl)piperidin-1-yl)-1H-pyrazol-1-yl)-2-methylpropan-1-ol]
[1]
  IC50: 0.5 nM
[2]
  IC50: 6.9 nM

## COc1cc(F)cc2c1nc(N)n1nc([C@@H]3CCCN(c4ccc(OC(F)F)nc4)C3)nc21 [Example 33, (R)-2-(1-(6-(difluoromethoxy)pyridin-3-yl)piperidin-3-yl)-9-fluoro-7-methoxy-[1,2,4]triazolo[1,5-c]quinazolin-5-amine]
[1]
  IC50: 3.6 nM
[2]
  IC50: 17.5 nM

## COc1ccc(N2CCC[C@@H](c3nc4c5cc(F)cc(OC)c5nc(N)n4n3)C2)cn1 [Example 34, (R)-9-fluoro-7-methoxy-2-(1-(6-methoxypyridin-3-yl)piperidin-3-yl)-[1,2,4]triazolo[1,5-c]quinazolin-5-amine]
[1]
  IC50: 1.4 nM
[2]
  IC50: 29.7 nM

## COc1cc(F)cc2c1nc(N)n1nc([C@@H]3CCCN(c4ccc(OC(C)C)nc4)C3)nc21 [Example 35, (R)-9-fluoro-2-(1-(6-isopropoxypyridin-3-yl)piperidin-3-yl)-7-methoxy-[1,2,4]triazolo[1,5-c]quinazolin-5-amine]
[1]
  IC50: 0.6 nM
[2]
  IC50: 12.2 nM

## COc1cc(F)cc2c1nc(N)n1nc([C@@H]3CCCN(c4ncn(CC(C)(C)O)n4)C3)nc21 [Example 36, (R)-1-(3-(3-(5-amino-9-fluoro-7-methoxy-[1,2,4]triazolo[1,5-c]quinazolin-2-yl)piperidin-1-yl)-1H-1,2,4-triazol-1-yl)-2-methylpropan-2-ol]
[1]
  IC50: 1.6 nM
[2]
  IC50: 93 nM

## COc1cc(F)cc2c1nc(N)n1nc([C@@H]3CCCN(c4nc(C)n(CC(C)(C)O)n4)C3)nc21 [Example 37, (R)-1-(3-(3-(5-amino-9-fluoro-7-methoxy-[1,2,4]trazolo[1,5-c]quinazolin-2-yl)piperidin-1-yl)-5-methyl-1H-1,2,4-triazol-1-yl)-2-methylpropan-2-ol]
[1]
  IC50: 1.1 nM
[2]
  IC50: 468 nM

## COc1cc2nc(N)n3nc([C@@H]4CCN(c5cnn(CC6(O)CCC6)c5)C4)nc3c2cc1F [Example 38, (R)-1((4-(3-(5-amino-9-fluoro-8-methoxy-[1,2,4]triazolo[1,5-c]quinazolin-2-yl)prrolidin-l-yl)-1H-pyrazol-1-yl)methyl)cyclobutan-1-ol]
[1]
  IC50: 16.9 nM
[2]
  IC50: 182 nM

## COc1cc2nc(N)n3nc(C4CCC(C)N(c5cnn(CC(C)(C)O)c5C)C4)nc3c2cc1F [Example 52, 1-(4-((2R,5S, or 2S,5R)-5-(5-amino-9-fluoro-8-methoxy-[1,2,4]triazolo[1,5-c]quinazolin-2-yl)-2-methylpiperidin-1-yl)-5-methyl-1H-pyrazol-1-yl)-2-methylpropan-2-ol]
[1]
  IC50: 18.3 nM
[2]
  IC50: 3010 nM

## COc1cc2nc(N)n3nc(C4CCC(C)N(c5cn(CC(C)(C)O)nc5C)C4)nc3c2cc1F [Example 53, 1-(4-((2R,5S, or 2S,5R)-5-(5-amino-9-fluoro-8-methoxy-[1,2,4]triazolo[1,5-c]quinazolin-2-yl)-2-methylpiperidin-1-yl)-3-methyl-1H-pyrazol-1-yl)-2-methylpropan-2-ol]
[1]
  IC50: 44.1 nM
[2]
  IC50: 4240 nM

## COc1cc2nc(N)n3nc([C@@H]4CCCN(c5cnn(CCCC(C)=O)c5)C4)nc3c2cc1F [Example 93, (R)-5-(4-(3-(5-amino-9-fluoro-8-methoxy-[1,2,4]triazolo[1,5-c]quinazolin-2-yl)piperidin-1-yl)-1H-pyrazol-1-yl)pentan-2-one]
[1]
  IC50: 5.8 nM
[2]
  IC50: 315 nM
